# Results published in patent US4897382A, “Organic amide compounds derived from nitrogenous lipids” (priority 1981, dated 1990).
# Legend:
# prolactin [1] = experiment: Hypoprolactinemic effect in rats, serum prolactin by RIA, sulpiride-treated (hyperprolactinemic) animals; conditions: for inhibition in vivo at 0.5 mg/kg / inhibition in vivo at 5 mg/kg: Rattus norvegicus; for inhibition in vivo at 0.5 mg/kg: read-out: Prolactin Inhibition %, sulpiride 10 γ/kg + 0.5 mg/kg test substance; for inhibition in vivo at 5 mg/kg: read-out: Prolactin Inhibition %, sulpiride 10 γ/kg + 5.0 mg/kg test substance
# dopamine receptors = biological target: T1, dopamine receptors (Rattus norvegicus, UniProt P61169); experiment: Binding of (^3H)-spiroperidole to hypophysis membranes of rat; conditions: for binding power / in vitro activity, in words: compared to the parent acid or lipid alone; for activity at 100 µM / activity at 10 µM / activity at 1 µM / activity at 0.1 µM: read-out: Product bound % ((^3H) spiroperidole binding to hypophysis membranes), (^3H) spiroperidole 2.10^-9 M (2 nM); for activity at 100 µM: test substance 10^-4 M; for activity at 10 µM: test substance 10^-5 M; for activity at 1 µM: test substance 10^-6 M; for activity at 0.1 µM: test substance 10^-7 M
# T1 construct: on hypophysis sinaptosomal rat membranes; from tissue; host or cells: rat hypophysis (pituitary), synaptosomal membranes
# T1 sequence (P61169 whole entry): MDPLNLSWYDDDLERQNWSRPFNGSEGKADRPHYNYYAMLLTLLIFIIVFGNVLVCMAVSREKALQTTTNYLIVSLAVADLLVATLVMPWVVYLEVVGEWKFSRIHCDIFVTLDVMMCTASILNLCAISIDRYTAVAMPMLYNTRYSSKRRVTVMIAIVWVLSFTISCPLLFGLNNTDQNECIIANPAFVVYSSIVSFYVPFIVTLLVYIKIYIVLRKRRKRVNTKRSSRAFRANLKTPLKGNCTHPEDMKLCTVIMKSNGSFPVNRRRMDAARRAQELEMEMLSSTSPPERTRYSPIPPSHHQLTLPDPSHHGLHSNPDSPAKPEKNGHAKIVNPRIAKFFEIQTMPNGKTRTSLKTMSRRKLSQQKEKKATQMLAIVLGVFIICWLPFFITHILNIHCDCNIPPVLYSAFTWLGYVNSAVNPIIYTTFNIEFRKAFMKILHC
# Protocol: The in vitro biological activity was determined by comparative tests measuring the binding power of the labelled spiroperidole (^3 H)-spiroperidole on hypophysis sinaptosomal rat membranes according to the method described by Greese et al (GREESE I., SCHNEIDER R. and SNYDER S. H.; H-spiroperidole labels dopamine receptors in pituitary and brain; Europ. J. Pharmacol. 46, 377-381 (1977)).
# prolactin [2] = experiment: Hypoprolactinemic effect in rats, serum prolactin by RIA, at the circadian peak at 4 p.m.; conditions: for Prolactin / inhibition in vivo at 0.5 mg/kg / inhibition in vivo at 5 mg/kg: circadian peak at 4 p.m.; for inhibition in vivo at 0.5 mg/kg / inhibition in vivo at 5 mg/kg: Rattus norvegicus; for inhibition in vivo at 0.5 mg/kg: read-out: Prolactin Inhibition %, 0.5 mg/kg; for inhibition in vivo at 5 mg/kg: read-out: Prolactin Inhibition %, 5.0 mg/kg; for in vivo (hypoprolactinemic) activity, in words: rats, summary statement
# [3] = General pharmacological activity in vitro and in vivo; conditions: tested in vitro and in vivo in laboratory animals
# [4] = system: synaptic membranes of the rat cortex; experiment: Binding of ^3H-GABA on synaptic membranes of the rat cortex (method of Enna and Snyder); conditions: for Product bound % (^3H-GABA binding on rat cortex membranes): ^3H-GABA 2.10^-8 M
# Source text: Table I presents the results of these tests, expressed in percentage of the fixed active product, comparing the in vitro activity of Product 1 with the activities of the individual components which comprise Product 1.
# [5] = mice; cited from earlier work
# [6] = background statement; cited from earlier work
# [7] = GABA by itself; cited from earlier work
# [8] = Anticonvulsant effects in rat (isoniazide convulsions); type: in vivo
# Protocol: The in vivo activity of Product 1 was measured by the method described by Costa et al (E. Costa, A. Guidotti and C. C. Mao; "Evidence for involvement of GABA in the Action of Benzodiazepines: Studies in Rat Cerebellum" in Mechanism of Action of Benzodiazepines; Ed. by E. Costa and P. Greengard, New York, Raven Press. pp. 113-130 (1975)) and by Loescher and Frey (Loesher, W. and Frey, H. H.; "Effect of convulsant and anticonvulsant agents on level and metabolism of gamma-aminobutyric acid in mouse brain"; Naunyn-Schmiedeberg's Arch. Pharmacol. 296, 263-269 (1977)). These tests are based on the known activity of isoniazide to cause convulsions and a lowering of the GABA cerebral levels and the glutamic-decarboxylase enzyme activity.
# [9] = sulpiride 10 γ/kg + 0.5 mg/kg test substance
# [10] = sulpiride 10 γ/kg + 5.0 mg/kg test substance
# [11] = test substance 10^-8 M, 0.01 µM
# [12] = isoniazide 160 mg/kg (s.c.) + GABA 8 mg/kg (i.p.)
# [13] = isoniazide 160 mg/kg (s.c.) + Product 1 20 mg/kg (i.p.)
smiles,measurement,setting,value
"CCCCCCCCCCCCCC=CC(O)C(COC1OC(CO)C(O)C(O)C1O)NC(=O)C1CC2c3cccc4[nH]cc(c34)CC2N(C)C1 (stereo not shown) [Product 16, Dihydrolysergylpsychosine amide]",inhibition in vivo at 0.5 mg/kg,prolactin [1],37%
same,inhibition in vivo at 5 mg/kg,prolactin [1],52%
same,Prolactin,prolactin [1]; [9],51.0 ± 7.0 ng/mL
same,Prolactin,prolactin [1]; [10],39.0 ± 4.0 ng/mL
same,"binding power / in vitro activity, in words",dopamine receptors,far superior to either dihydrolysergic acid or psychosine alone
same,activity at 100 µM,dopamine receptors,25%
same,activity at 10 µM,dopamine receptors,45%
same,activity at 1 µM,dopamine receptors,80%
same,activity at 0.1 µM,dopamine receptors,100%
same,Prolactin,prolactin [2]; 0.5 mg/kg,40.0 ± 7.0 ng/mL
same,Prolactin,prolactin [2]; 5.0 mg/kg,31.0 ± 6.0 ng/mL
same,inhibition in vivo at 0.5 mg/kg,prolactin [2],31%
same,inhibition in vivo at 5 mg/kg,prolactin [2],47%
same,"in vivo (hypoprolactinemic) activity, in words",prolactin [2],far superior to either dihydrolysergic acid or psychosine alone
same,"action in the central nervous system, in words",[3],capable of acting directly in the central nervous system
"NCCCC(=O)O [GABA, Gamma-aminobutyric acid]",Product bound % (^3H-GABA binding on rat cortex membranes),"[4]; test substance 10^-4 M, 100 µM",20%
same,Product bound % (^3H-GABA binding on rat cortex membranes),"[4]; test substance 10^-5 M, 10 µM",20%
same,Product bound % (^3H-GABA binding on rat cortex membranes),"[4]; test substance 10^-6 M, 1 µM",25%
same,Product bound % (^3H-GABA binding on rat cortex membranes),"[4]; test substance 10^-7 M, 0.1 µM",45%
same,Product bound % (^3H-GABA binding on rat cortex membranes),[4]; [11],90%
same,"in vitro biological activity (GABA binding), in words",[4]; summary of Table I,activity comparable to that of Product 1
same,effect when administered in vivo as measured by convulsion tests,[5],ineffective
same,"in vitro / in vivo activity, in words",[6],active in vitro but relatively inactive in vivo
same,"penetration of the encephalic barrier, in words",[7],"incapable, by itself, of penetrating the encephalic barrier"
same,Latency of the convulsions measured,[8]; [12],3100 ± 156 s
same,Number of animals in convulsions,[8]; [12],24/30
same,Number of dead animals,[8]; [12],14
"CCCCCCCCCCCCCC=CC(O)C(CO)NC(=O)CCCN (stereo not shown) [Product 1, Gamma-aminobutyrylsphingosine amide]",Product bound % (^3H-GABA binding on rat cortex membranes),"[4]; test substance 10^-4 M, 100 µM",20%
same,Product bound % (^3H-GABA binding on rat cortex membranes),"[4]; test substance 10^-5 M, 10 µM",25%
same,Product bound % (^3H-GABA binding on rat cortex membranes),"[4]; test substance 10^-6 M, 1 µM",40%
same,Product bound % (^3H-GABA binding on rat cortex membranes),"[4]; test substance 10^-7 M, 0.1 µM",60%
same,Product bound % (^3H-GABA binding on rat cortex membranes),[4]; [11],95%
same,"action in the central nervous system, in words",[3],capable of acting directly in the central nervous system
same,"in vivo (anticonvulsant) activity, in words",[8]; compared to GABA or sphingosine alone,far superior in vivo activity as compared to GABA or sphingosine alone
same,Latency of the convulsions measured,[8]; [13],4500 ± 330 s
same,Number of animals in convulsions,[8]; [13],9/30
same,Number of dead animals,[8]; [13],3
"CCCCCCCCCCCCCC=CC(O)C(CO)NC(=O)C1CC2c3cccc4[nH]cc(c34)CC2N(C)C1 (stereo not shown) [Product 3, Dihydrolysergylsphingosine amide]",inhibition in vivo at 0.5 mg/kg,prolactin [1],30%
same,inhibition in vivo at 5 mg/kg,prolactin [1],60%
same,Prolactin,prolactin [1]; [9],53.7 ± 8.5 ng/mL
same,Prolactin,prolactin [1]; [10],31.2 ± 2.5 ng/mL
same,"binding power / in vitro activity, in words",dopamine receptors,"significant and far superior, under the same experimental conditions, to that of dihydrolysergic acid or sphingosine alone"
same,activity at 100 µM,dopamine receptors,10%
same,activity at 10 µM,dopamine receptors,40%
same,activity at 1 µM,dopamine receptors,90%
same,activity at 0.1 µM,dopamine receptors,100%
same,Prolactin,prolactin [2]; 0.5 mg/kg,38.7 ± 4.7 ng/mL
same,Prolactin,prolactin [2]; 5.0 mg/kg,32.2 ± 5.7 ng/mL
same,inhibition in vivo at 0.5 mg/kg,prolactin [2],42%
same,inhibition in vivo at 5 mg/kg,prolactin [2],52%
same,"in vivo (hypoprolactinemic) activity, in words",prolactin [2],significant biological activity
same,"action in the central nervous system, in words",[3],capable of acting directly in the central nervous system
